The source of these data is US20260125359A1, “HETEROARYL COMPOUNDS AS MULTI-TARGET PROTEIN KINASE INHIBITORS” (FUJIAN HAIXI PHARMACEUTICALS CO., LTD., priority 2023, published 2026).

Test [1] deals with DDR1 (Homo sapiens, UniProt Q08345). The test can be described thus: DDR1 in vitro kinase activity assay (LanthaScreen Eu-anti-GST antibody / Kinase Tracer 178). Format: binding. The conditions noted are these: for inhibition at 0.01 µM: compound 10 nM, read-out: DDR1 inhibition rate, 10 nM; for inhibition at 0.1 µM: compound 100 nM, read-out: DDR1 inhibition rate, 100 nM. The protocol:
DDR1 in vitro Kinase Activity Assay:
• ENVISION (Perkinelmer, 2104) • White 384-well MicroPlate (Cat #264706, Nunc) • DDR1 (Cat #PV6047, Invitrogen) • 5× Kinase Buffer A (Cat #PV3189, Invitrogen) • Kinase Tracer 178 (Cat #PV5593, Invitrogen) • LanthaScreen® Eu-anti-GST Antibody (Cat #PV5594, Invitrogen)
The compounds to be tested were tested at two concentrations of 100 nM and 10 nM.
Kinase/Antibody Mixtures Preparation: Dilute Kinase/Antibody Mixtures with 1× Kinase Buffer to form 3× working solutions with final concentrations of 5 nM kinase and 2 nM Eu-Anti-GST Antibody, respectively.
Kinase Tracer 178 Preparation: Dilute Kinase Tracer 178 with 1× Kinase Buffer to make a 3× working solution with a final concentration of 10 nM.
After all reagents were prepared according to the methods described above, except for the enzyme, they were equilibrated to room temperature before starting the sample addition. • a) First, 3% DMSO solutions were prepared separately using the pre-prepared 1× kinase buffer (DMSO concentrations that were too high could affect the reaction, so the final concentration of DMSO was controlled at 1%). Then, the corresponding 3% DMSO solution for the enzyme was used to dilute the test compounds. Compounds were screened with two concentrations of 100 nM and 10 nM. Except for the control wells, 5 μL of the diluted test compound solution was added to the reaction wells, and 5 μL of the pre-prepared 3% DMSO solution was added to the control wells. • b) 5 μL of the pre-prepared Kinase/Antibody mixtures was added to all reaction wells except the negative control wells. For the negative control wells, 5 μL of 1× kinase buffer corresponding to the enzyme was added to make up the volume. • c) 5 μL of the pre-prepared Kinase Tracer 178 solution was added to all reaction wells. • d) The plate was sealed and mixed, incubated at room temperature for 1 hour, and the fluorescence signal was detected using the ENVISION (PerkinElmer) instrument (excitation at 340 nm, emission at 665 nm and 615 nm). The inhibition rate for each well was calculated based on the full-activity control wells and background signal wells, and the average value of the replicates was taken.

The target in test [2] is PDGFR-α (Homo sapiens, UniProt P16234). The test can be described thus: PDGFR-α in vitro kinase activity assay (HTRF kinEASE TK). It is filed as biochemical. To be noted: for inhibition at 0.01 µM: compound 10 nM, read-out: PDGFRα inhibition rate, 10 nM; for inhibition at 0.1 µM: compound 100 nM, read-out: PDGFRα inhibition rate, 100 nM. From the text: (§1) CSF-1R, PDGFR-α, KDR (VEGFR2) and KIT in vitro Kinase Activity Assay:
(§2) • ENVISION (Perkinelmer, 2104) • White 384-well MicroPlate (Cat #264706, Nunc) • HTRF kinEASE TK kit main reagents (Cat #62TKOPEC, Cisbio) • TK-biotin substrate • Streptavidin-XL665 • TK Antibody-Cryptate • 5× Enzymatic buffer (5×KB) • Staphylococcal enterotoxin B (SEB) • HTRF Detection buffer • CSF-1R (Cat #PV3249, Invitrogen) • PDGFR-α (Cat #PV3811, Invitrogen) • KDR (Cat #PV3660, Invitrogen) • KIT (Cat #08-156, Carna) • ATP 10 mM (Cat #PV3227, Invitrogen) • DTT 1 M (Cat #D5545, Sigma) • MgCl2 1 M (Cat #M8266, Sigma) • MnCl2 1 M (Cat #244589, Sigma)
(§3) Dilute Substrate-TK and ATP to 5× of the reaction concentration using 1× Kinase Buffer.
(§4) Prepare the 5× enzyme working solution using 1× Kinase Buffer.
(§5) Prepare the 4×Sa-XL665 working solution using Detection Buffer.
(§6) Dilute TK-Ab-Cryptate 100 times using Detection Buffer to prepare the working solution.
(§7) After all reagents were prepared according to the methods described above, except for the enzyme, they were equilibrated to room temperature before starting the sample addition. • a) First, 2.5% DMSO solutions were prepared separately using the pre-prepared 1× kinase buffer (DMSO concentrations that were too high could affect the reaction, so the final concentration of DMSO was controlled at 1%). Then, the corresponding 2.5% DMSO solution for the enzyme was used to dilute the test compounds. Compounds were screened with two concentrations of 100 nM and 10 nM. Except for the control wells, 4 μL of the diluted test compound solution was added to the reaction wells, and 4 μL of the pre-prepared 2.5% DMSO solution was added to the control wells. • b) 2 μL of the pre-prepared TK-biotin substrate solution at the corresponding concentration for the kinase was added to all reaction wells. • c) 2 μL of the pre-prepared enzyme solution at the corresponding concentration was added to all reaction wells except the negative control wells. For the negative control wells, 2 μL of 1× kinase buffer corresponding to the enzyme was added to make up the volume. The plate was sealed with sealing film, mixed gently, and incubated at room temperature for 10 min to allow the compounds to fully interact with the enzyme. • d) 2 μL of the ATP solution at the corresponding concentration for the enzyme was added to all reaction wells to initiate the kinase reaction. ATP concentrations and reaction times for enzyme screening are shown in Table 26 • e) Five minutes before the end of the kinase reaction, the detection solution was prepared. The detection buffer from the kit was used to prepare detection solutions for Streptavidin-XL665 and TK antibody europium cryptate (1:100) at the appropriate concentrations for the two enzymes. • f) After the kinase reaction was completed, 5 μL of the diluted Streptavidin-XL665 solution was added to all reaction wells. After mixing, the diluted TK antibody europium cryptate detection solution was immediately added. • g) The plate was sealed and mixed, incubated at room temperature for 1 hour, and the fluorescence signal was detected using the ENVISION (PerkinElmer) instrument (excitation at 320 nm, emission at 665 nm and 615 nm). The inhibition rate for each well was calculated based on the full-activity control wells and background signal wells, and the average value of the replicates was taken.

Test [3] has as its target KDR (VEGFR2) (Homo sapiens, UniProt P35968). Description: KDR (VEGFR2) in vitro kinase activity assay (HTRF kinEASE TK). The conditions noted are these: for inhibition at 0.01 µM: compound 10 nM, read-out: VEGFR2 inhibition rate, 10 nM; for inhibition at 0.1 µM: compound 100 nM, read-out: VEGFR2 inhibition rate, 100 nM. It is filed as biochemical.
Excerpt: as §1, §2, §3, §4, §5, §6, §7

The target of test [4] is KIT (Homo sapiens, UniProt P10721). The test can be described thus: KIT in vitro kinase activity assay (HTRF kinEASE TK). It is filed as biochemical. To be noted: for inhibition at 0.01 µM: compound 10 nM, read-out: KIT inhibition rate, 10 nM; for inhibition at 0.1 µM: compound 100 nM, read-out: KIT inhibition rate, 100 nM.
Sequence of KIT (P10721 26-976): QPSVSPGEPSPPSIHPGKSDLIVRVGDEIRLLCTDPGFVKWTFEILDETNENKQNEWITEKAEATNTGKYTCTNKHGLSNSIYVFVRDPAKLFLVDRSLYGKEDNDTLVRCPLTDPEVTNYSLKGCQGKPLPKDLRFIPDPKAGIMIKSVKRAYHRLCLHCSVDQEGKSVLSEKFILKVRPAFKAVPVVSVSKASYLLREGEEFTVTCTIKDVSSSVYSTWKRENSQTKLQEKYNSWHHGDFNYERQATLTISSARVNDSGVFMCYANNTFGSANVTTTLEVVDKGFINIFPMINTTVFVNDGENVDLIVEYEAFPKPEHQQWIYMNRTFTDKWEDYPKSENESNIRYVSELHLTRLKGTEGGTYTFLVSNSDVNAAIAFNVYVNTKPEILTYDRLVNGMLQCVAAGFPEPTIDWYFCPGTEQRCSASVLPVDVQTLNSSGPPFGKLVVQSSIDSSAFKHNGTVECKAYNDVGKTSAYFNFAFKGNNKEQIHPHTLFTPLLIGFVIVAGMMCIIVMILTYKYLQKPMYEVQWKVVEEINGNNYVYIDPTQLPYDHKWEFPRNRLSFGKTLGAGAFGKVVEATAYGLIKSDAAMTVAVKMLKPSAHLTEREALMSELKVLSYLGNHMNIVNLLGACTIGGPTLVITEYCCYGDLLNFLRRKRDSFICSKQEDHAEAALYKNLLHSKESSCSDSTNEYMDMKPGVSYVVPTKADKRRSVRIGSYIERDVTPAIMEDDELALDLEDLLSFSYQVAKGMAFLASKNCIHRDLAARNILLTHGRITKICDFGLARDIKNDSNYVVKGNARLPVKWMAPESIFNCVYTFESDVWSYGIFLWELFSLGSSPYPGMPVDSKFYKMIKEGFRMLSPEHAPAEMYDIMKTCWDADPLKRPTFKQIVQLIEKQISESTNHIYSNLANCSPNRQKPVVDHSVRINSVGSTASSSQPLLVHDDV
Excerpt: as §1, §2, §3, §4, §5, §6, §7

Test [5] addresses CSF-1R (Homo sapiens, UniProt P07333). The test can be described thus: CSF-1R in vitro kinase activity assay (HTRF kinEASE TK). It is filed as biochemical. To be noted: for inhibition at 0.01 µM: compound 10 nM, read-out: CSF-1R inhibition rate, 10 nM; for inhibition at 0.1 µM: compound 100 nM, read-out: CSF-1R inhibition rate, 100 nM.
Excerpt: as §1, §2, §3, §4, §5, §6, §7

Each structure is given as a SMILES string.

Sequence of KDR (VEGFR2) (P35968 20-1356): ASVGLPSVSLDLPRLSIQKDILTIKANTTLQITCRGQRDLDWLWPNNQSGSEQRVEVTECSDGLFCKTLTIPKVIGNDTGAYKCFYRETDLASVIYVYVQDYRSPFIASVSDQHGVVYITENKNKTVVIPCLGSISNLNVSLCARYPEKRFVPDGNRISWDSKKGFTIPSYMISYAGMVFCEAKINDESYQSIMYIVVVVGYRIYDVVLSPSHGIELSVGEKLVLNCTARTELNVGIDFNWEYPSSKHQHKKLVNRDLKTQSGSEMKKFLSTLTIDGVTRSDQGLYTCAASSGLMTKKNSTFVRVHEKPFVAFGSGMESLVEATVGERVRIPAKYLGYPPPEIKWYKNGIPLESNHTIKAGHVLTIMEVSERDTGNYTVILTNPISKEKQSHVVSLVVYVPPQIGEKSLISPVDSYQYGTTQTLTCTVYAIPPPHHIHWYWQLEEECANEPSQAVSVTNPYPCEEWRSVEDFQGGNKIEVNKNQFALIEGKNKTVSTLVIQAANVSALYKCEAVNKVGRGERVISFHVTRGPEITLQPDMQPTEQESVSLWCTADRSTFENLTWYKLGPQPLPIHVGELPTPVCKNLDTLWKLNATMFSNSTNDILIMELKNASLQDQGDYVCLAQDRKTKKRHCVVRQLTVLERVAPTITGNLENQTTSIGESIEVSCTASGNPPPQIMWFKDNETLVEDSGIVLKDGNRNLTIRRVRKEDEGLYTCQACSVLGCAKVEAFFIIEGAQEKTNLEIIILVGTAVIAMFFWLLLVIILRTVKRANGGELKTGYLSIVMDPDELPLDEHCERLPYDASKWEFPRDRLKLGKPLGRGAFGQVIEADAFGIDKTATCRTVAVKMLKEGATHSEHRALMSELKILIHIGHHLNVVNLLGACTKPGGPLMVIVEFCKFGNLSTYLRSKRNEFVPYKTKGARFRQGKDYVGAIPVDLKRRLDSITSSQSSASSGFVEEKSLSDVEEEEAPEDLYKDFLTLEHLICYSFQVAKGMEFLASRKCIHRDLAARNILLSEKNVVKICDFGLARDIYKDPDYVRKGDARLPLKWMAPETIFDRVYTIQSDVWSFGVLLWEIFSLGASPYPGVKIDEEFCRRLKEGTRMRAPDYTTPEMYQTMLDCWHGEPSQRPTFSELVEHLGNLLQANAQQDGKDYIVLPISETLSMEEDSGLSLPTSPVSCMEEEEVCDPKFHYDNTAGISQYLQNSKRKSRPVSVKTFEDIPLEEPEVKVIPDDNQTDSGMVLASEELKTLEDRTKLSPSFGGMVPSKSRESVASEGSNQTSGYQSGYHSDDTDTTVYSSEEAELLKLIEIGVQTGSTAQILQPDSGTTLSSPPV
Sequence of CSF-1R (P07333 20-972): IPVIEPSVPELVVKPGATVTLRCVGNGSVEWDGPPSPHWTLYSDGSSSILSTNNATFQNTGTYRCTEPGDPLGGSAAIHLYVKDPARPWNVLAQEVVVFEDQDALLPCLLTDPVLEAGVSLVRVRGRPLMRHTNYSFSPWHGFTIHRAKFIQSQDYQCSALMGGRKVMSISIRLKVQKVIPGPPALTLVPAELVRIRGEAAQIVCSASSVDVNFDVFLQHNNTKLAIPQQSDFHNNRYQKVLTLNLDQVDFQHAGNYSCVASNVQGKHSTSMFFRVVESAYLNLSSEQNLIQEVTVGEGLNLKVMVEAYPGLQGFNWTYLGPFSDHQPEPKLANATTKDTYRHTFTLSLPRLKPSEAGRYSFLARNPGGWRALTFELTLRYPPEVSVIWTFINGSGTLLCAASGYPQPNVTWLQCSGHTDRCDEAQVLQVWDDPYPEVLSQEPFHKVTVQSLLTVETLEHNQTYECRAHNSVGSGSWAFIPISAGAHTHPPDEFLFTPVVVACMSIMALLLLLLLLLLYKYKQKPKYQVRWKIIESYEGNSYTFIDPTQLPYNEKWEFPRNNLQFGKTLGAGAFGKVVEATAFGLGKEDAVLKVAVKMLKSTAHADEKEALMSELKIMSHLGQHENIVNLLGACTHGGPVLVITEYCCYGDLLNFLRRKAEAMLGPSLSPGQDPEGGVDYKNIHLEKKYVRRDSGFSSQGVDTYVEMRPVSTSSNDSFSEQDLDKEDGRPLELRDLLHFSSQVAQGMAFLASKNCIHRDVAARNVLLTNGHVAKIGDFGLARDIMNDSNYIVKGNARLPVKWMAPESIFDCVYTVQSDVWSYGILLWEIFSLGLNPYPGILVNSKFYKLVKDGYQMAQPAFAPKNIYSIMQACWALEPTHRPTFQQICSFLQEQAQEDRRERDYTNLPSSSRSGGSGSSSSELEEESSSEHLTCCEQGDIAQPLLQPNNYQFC
Sequence of PDGFR-α (P16234 24-1089): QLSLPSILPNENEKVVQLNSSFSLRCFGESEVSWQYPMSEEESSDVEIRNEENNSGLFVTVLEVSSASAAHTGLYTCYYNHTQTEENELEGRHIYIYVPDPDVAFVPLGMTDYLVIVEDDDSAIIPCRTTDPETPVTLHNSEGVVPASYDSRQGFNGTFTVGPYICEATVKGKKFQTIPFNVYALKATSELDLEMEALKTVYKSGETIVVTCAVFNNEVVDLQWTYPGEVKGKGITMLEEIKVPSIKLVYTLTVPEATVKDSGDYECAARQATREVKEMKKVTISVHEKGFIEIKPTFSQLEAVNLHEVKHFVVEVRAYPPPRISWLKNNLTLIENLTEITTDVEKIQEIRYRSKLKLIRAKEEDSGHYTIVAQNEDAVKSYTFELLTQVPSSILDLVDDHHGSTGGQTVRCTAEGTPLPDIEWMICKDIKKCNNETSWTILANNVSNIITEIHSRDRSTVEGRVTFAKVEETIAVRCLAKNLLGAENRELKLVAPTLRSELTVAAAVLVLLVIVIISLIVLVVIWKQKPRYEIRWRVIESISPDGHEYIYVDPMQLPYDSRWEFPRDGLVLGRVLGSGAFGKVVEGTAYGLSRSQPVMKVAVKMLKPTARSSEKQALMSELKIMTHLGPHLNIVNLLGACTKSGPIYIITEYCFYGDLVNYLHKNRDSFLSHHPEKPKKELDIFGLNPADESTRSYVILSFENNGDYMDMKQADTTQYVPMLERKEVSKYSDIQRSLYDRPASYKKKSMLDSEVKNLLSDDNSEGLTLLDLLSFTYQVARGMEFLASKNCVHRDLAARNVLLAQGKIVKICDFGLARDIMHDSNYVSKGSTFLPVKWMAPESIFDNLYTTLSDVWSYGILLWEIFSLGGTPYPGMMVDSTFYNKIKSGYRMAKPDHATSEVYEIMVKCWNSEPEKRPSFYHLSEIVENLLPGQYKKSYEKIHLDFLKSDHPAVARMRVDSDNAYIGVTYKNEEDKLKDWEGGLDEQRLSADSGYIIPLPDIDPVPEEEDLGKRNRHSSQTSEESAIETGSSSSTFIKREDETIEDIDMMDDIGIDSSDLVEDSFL

For `Cn1cc(-c2cncc(O[C@H]3CCc4c(C(=O)Nc5cncc(Cl)c5)cccc43)c2)cn1` [Compound 19a, (S)—N-(5-chloropyridin-3-yl)-1-((5-(1-methyl-1H-pyrazol-4-yl)pyridin-3-yl)oxy)-2,3-dihydro-1H-indene-4-carboxamide], the inhibition at 0.01 µM worked out at 69.4% in test [1]; 40.5% in test [2]; 92.3% in test [3]; 22.1% in test [4]; 79.4% in test [5]. Moreover, the inhibition at 0.1 µM in test [1] amounted to 102%; in test [2] it was 86.2%; in test [3], 101%; in test [4], 48.6%; in test [5] it was 100%.
Turning to `Cn1cc(-c2cncc(O[C@H]3CCc4c(C(=O)Nc5cccc(C6CC6)c5)cccc43)c2)cn1` [Compound 19b], the inhibition at 0.01 µM in test [1] turned out to be 84%; in test [2] it was 22.9%; in test [3], 93.6%; in test [4], 11.2%; in test [5], 71.9%. Further, the inhibition at 0.1 µM in test [1] is 105%; in test [2], 97.1%; in test [3], 102%; in test [4], 80.2%; in test [5], 97.4%.
As to `CN1CCc2nc(NC(=O)c3cccc4c3CC[C@@H]4Oc3cncc(-c4cnn(C)c4)c3)sc2C1` [Compound 19f], the inhibition at 0.01 µM was 23.1% in test [1]; 14.5% in test [2]; 22.7% in test [3]; 12.1% in test [4]; 27.5% in test [5]. The inhibition at 0.1 µM in test [1] is 53.5%; in test [2], 67.2%; in test [3], 88.9%; in test [4] it was 53.9%; in test [5], 95.4%.
As to `CN(C)Cc1cncc(NC(=O)c2cccc3c2CC[C@@H]3Oc2cncc(-c3cnn(C)c3)c2)c1` [Compound 19h], the inhibition at 0.01 µM in test [1] is 65.3%; in test [2], 3.8%; in test [3], 24.6%; in test [4] it was -3.9%; in test [5], 72%. Besides, the inhibition at 0.1 µM came to 97.1% in test [1]; 68.3% in test [2]; 84.4% in test [3]; 4.9% in test [4]; 96.6% in test [5].
On to `Cc1cncc(NC(=O)c2cccc3c2CC[C@@H]3Oc2cncc(-c3cnn(C)c3)c2)c1` [Compound 19j], for which the inhibition at 0.01 µM amounted to 86.1% in test [1]; 23.5% in test [2]; 91.7% in test [3]; 14.5% in test [4]; 80.1% in test [5]. In addition, the inhibition at 0.1 µM in test [1] came out at 96.7%; in test [2] it was 79.7%; in test [3], 102%; in test [4], 62.8%; in test [5], 101%.
For `Cc1cc(NC(=O)c2cccc3c2CC[C@@H]3Oc2cncc(-c3cnn(C)c3)c2)cc(C)n1` [Compound 19k, (S)—N-(2,6-dimethylpyridin-4-yl)-1-((5-(1-methyl-1H-pyrazol-4-yl)pyridin-3-yl)oxy)-2,3-dihydro-1H-indene-4-carboxamide], the inhibition at 0.01 µM came out at 81.4% in test [1]; 13.9% in test [2]; 53% in test [3]; 21.8% in test [4]; 57.6% in test [5]. Besides, the inhibition at 0.1 µM is 89.9% in test [1]; 74.3% in test [2]; 99.1% in test [3]; 63.7% in test [4]; 97.4% in test [5].
As to `CN(c1cncc(-c2cnn(C)c2)c1)[C@H]1CCc2c(C(=O)Nc3cncc(Cl)c3)cccc21` [Compound 21, (S)—N-(5-chloropyridin-3-yl)-1-(methyl (5-(1-methyl-1H-pyrazol-4-yl)pyridin-3-yl)amino)-2,3-dihydro-1H-indene-4-carboxamide], the inhibition at 0.01 µM turned out to be 29.7% in test [1]; 7.7% in test [2]; 22.3% in test [3]; 2.4% in test [4]; 48.6% in test [5]. The inhibition at 0.1 µM in test [1] is 88%; in test [2], 38.7%; in test [3] it was 62.6%; in test [4] it was 15.3%; in test [5], 100%.
With `CN(c1cncc(-c2cnn(C)c2)c1)[C@H]1CCc2c(C(=O)Nc3cccc(C4CC4)c3)cccc21` [Compound 22a, (S)—N-(3-cyclopropylphenyl)-1-(methyl (5-(1-methyl-1H-pyrazol-4-yl)pyridin-3-yl)amino)-2,3-dihydro-1H-indene-4-carboxamide], the inhibition at 0.01 µM in test [1] worked out at 32.4%; in test [2], 62.9%; in test [3], 52.5%; in test [4], 5.8%; in test [5] it was 34%. Also, the inhibition at 0.1 µM in test [1] was found to be 86%; in test [2], 60.5%; in test [3], 96.4%; in test [4], 27.2%; in test [5], 96.7%.
